Test results reported in ChEMBL document CHEMBL1129152, “Synthesis of constrained thiorphan analogs as inhibitors of neutral endopeptidase” (Bioorg Med Chem Lett, 1996).

Target: T1, Neprilysin (Rattus norvegicus, UniProt P07861)
T1 sequence (P07861 whole entry): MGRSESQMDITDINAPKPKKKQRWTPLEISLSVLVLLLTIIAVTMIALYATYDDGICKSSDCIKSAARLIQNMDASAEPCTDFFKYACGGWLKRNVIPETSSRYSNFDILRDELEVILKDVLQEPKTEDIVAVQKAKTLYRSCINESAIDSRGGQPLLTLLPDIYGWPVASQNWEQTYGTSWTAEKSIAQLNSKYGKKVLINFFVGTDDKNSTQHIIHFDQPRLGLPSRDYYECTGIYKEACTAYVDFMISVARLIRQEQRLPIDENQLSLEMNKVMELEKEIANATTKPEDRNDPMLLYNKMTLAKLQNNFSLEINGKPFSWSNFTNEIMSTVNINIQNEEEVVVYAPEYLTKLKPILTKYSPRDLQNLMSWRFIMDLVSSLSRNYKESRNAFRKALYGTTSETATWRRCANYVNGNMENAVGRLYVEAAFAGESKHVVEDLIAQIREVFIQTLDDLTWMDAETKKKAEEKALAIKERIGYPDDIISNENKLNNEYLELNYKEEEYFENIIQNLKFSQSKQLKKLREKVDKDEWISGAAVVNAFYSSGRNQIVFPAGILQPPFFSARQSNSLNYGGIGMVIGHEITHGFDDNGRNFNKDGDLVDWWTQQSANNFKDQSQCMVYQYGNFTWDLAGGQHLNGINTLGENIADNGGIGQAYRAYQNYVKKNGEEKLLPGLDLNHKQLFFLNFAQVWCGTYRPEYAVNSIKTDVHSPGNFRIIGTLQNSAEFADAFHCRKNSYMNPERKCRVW
Assay: Inhibition of neutral endopeptidase (NEP).

| Ki | Compound |
| --- | --- |
| 0.6 nM | O=C(O)CCCCCCNC(=O)C1(CS)CCc2ccccc2C1 (centres undefined) |
| 10 nM | O=C(CNC(=O)C1(CS)Cc2ccccc2C1)OCc1ccccc1 |
| 0.3 nM | C[C@H](NC(=O)C1(CS)CCc2ccccc2C1)C(=O)OCc1ccccc1 (some centres undefined) |
| 45 nM | O=C(O)[C@@H]1CCCC2c3ccccc3C[C@@H](CS)C(=O)N21 (some centres undefined) |
| 2 nM | CC(C)[C@H](NC(=O)C1(CS)CCc2ccccc2C1)C(=O)OCc1ccccc1 (some centres undefined) |
| 0.5 nM | O=C(OCc1ccccc1)[C@H](Cc1ccc(O)cc1)NC(=O)C1(CS)CCc2ccccc2C1 (some centres undefined) |
| 4 nM | COC(=O)[C@H](Cc1ccccc1)NC(=O)C1(CS)CCc2ccccc2C1 (some centres undefined) |
| 7 nM | COC(=O)[C@H](CC(C)C)NC(=O)C1(CS)CCc2ccccc2C1 (some centres undefined) |
| 0.2 nM | COC(=O)CCNC(=O)C1(CS)CCc2ccccc2C1 (centres undefined) |
| > 300 nM | O=C(O)[C@@H]1CCCC2c3ccccc3C[C@H](CS)C(=O)N21 (some centres undefined) |
| 14 nM | O=C(NCc1ccc2c(c1)OCO2)C1(CS)CCc2ccccc2C1 (centres undefined) |
| 0.4 nM | O=C(CNC(=O)C1(CS)CCc2ccccc2C1)OCc1ccccc1 (centres undefined) |
| 5 nM | O=C(CS)N[C@H]1Cc2ccccc2C2CCC[C@@H](C(=O)O)N2C1=O (some centres undefined) |
| 0.6 nM | O=C(O)C1CCC(NC(=O)C2(CS)CCc3ccccc3C2)CC1 (centres undefined) |
